From US20140057895A1, “INDAZOLE- AND PYRROLOPYRIDINE-DERIVATIVE AND PHARMACEUTICAL USE THEREOF” (priority 2011, published 2014)
Structures can show the parent of a compound that is named as a salt.

Columns and labels:
[1] = molecular target: T1, Human 5-HT4 receptor (5-HT4b) (Homo sapiens, UniProt Q13639); experiment: Test Example 3: Human 5-HT4 receptor binding assay, membranes of CHO-K1 cells stably expressing 5-HT4b receptors (Table 99); details: mean value of each group
T1 construct: expressed in transfected cells; membrane preparation
T1 sequence (Q13639 whole entry): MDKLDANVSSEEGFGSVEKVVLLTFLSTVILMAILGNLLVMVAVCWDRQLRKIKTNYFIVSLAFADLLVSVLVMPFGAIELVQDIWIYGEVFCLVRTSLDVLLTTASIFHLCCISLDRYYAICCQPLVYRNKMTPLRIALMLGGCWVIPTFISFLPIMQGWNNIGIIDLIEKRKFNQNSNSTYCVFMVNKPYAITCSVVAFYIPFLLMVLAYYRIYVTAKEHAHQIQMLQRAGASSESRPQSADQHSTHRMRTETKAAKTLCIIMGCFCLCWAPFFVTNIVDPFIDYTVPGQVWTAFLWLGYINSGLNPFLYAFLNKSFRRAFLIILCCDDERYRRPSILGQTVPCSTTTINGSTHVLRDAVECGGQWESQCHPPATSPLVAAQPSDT
Description: To an assay tube were added 0.1 nM [^3H]-GR113808 {chemical name: [1-[2-(methylsulfonylamino) ethyl]-4-piperidinyl]methyl 1-methylindole-3-carboxylate}, receptor membrane preparations, and Hepes buffer (50 mM, pH 7.4, 4° C., 1 ml) containing test compounds or 30 μM serotonin; and the mixture was incubated at 37° C. for 30 minutes. On quenching the reaction, the mixture was rapidly filtered on whatman GF/B filter, which was presoaked in 0.1% polyethyleneimine for 1 hour, by using Brandel cell Harvester, and washed with ice-cooled 50 mM Tris-HCl (pH 7.7, 4 ml) three times. To the filter after filtration was added a liquid scintillator (Ecoscint), and then a radioactivity was determined by a liquid scintillation counter.
50% Inhibition concentrations (IC50) were determined from inhibition rates of test compounds to specific bindings which were obtained by subtracting nonspecific bindings from total binding amounts of [^3H]-GR113808.
Human 5-HT4 receptor membrane preparations were prepared from CHO-K^1 cells which stably express 5-HT4b receptors, and human 5-HT4 receptor binding assay was carried out in a similar manner as in the guinea pig 5-HT4 receptor binding assay. The following tables show results of serotonin 4 (5-HT4) receptor binding assay. In the following tables, the compounds used in the test are shown in numbers which correspond to the Example numbers above where the preparations of the compounds are described.

human 5-HT4b receptor = molecular target: T2, human 5-HT4b receptor (Homo sapiens, UniProt Q13639); experiment: Test Example 4: Serotonin 4 (5-HT4) receptor agonist activity assay, cAMP HTRF in CHO cells (Table 100); type: cell-based; details: mean value; for Emax: CHO, 0.25 h, intrinsic activity, maximal activity of 5-HT defined as 100%, read-out: IA (%); for EC50: concentration showing 50% of IA
T2 construct: expressed in transfected cells; host or cells: CHO cells (G418 selection)
T2 sequence (Q13639 whole entry): as above
Description: The cAMP measurement test used herein was carried out by using CISBIO HTRF (trademark) cAMP Hirange kit according to the manufacturer's instructions attached therewith.
CHO cells expressing human 5-HT4b receptor were incubated in Medium 1 [DMEM/1% NEAA, 1% penicillin/streptomycin (P/S), 0.2 mg/mL GENETICIN (G418), 10% FBS] at 37° C. under 5% CO2 condition. Then, the cells were put into Medium 2 (DMEM/10000 cut FBS, G-418, P/S, NEAA) for 1 to 2 hours, and collected by treating with trypsin containing EDTA. The collected cells were suspended in Assay Buffer 1 [100 mM Hanks/HEPES buffer (pH 7.4)], the suspended cells were mixed with the testing compound on 384-well plates, and the cells were incubated at 31° C. for 15 minutes. To the cells were added cAMP-cryptate solution and cAMP-d2 solution, and they were incubated at room temperature for 1 hour. Then, time-resolved fluorescence was measured by En Vision (excitation wavelength: 330 nm, fluorescence wavelength: 620/665 nm).
An intrinsic activity of the compound [IA (%)] and a concentration showing 50% of IA [EC50 (nM)] were calculated from the obtained results. In particular, the intrinsic activity (IA) was calculated on the basis of the maximal activity of 5-HT (measured from 10^−11 M to 10^−7 M) defined as 100%.
In the following table, the compounds used in the test are shown in numbers which correspond to the Example numbers above where the preparations of the compounds are described.

5-HT4 receptor = molecular target: T3, 5-HT4 receptor (Cavia porcellus, UniProt O70528); experiment: Test Example 3: Guinea pig 5-HT4 receptor binding assay, [3H]-GR113808, striatum membranes (Table 98); details: Guinea pig 5-HT4 receptor binding assay, [3H]-GR113808, striatum membranes; mean value of each group; read-out: IC50
T3 construct: striatum was isolated which was cryopreserved at −80° C. until use; from tissue; host or cells: guinea pig (Slc-Hartley) striatum membranes
T3 sequence (O70528 whole entry): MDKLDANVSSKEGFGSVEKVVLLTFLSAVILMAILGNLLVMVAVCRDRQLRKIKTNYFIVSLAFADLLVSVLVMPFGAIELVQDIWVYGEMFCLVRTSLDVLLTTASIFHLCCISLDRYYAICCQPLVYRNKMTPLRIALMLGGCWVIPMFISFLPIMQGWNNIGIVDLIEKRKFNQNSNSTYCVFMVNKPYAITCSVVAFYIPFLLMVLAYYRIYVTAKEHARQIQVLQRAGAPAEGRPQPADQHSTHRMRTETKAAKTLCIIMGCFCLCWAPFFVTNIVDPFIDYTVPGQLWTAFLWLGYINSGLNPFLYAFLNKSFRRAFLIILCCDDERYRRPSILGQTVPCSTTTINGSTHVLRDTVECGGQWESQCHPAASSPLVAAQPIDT
Outline: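 Striatal membranes from Slc-Hartley guinea pigs were incubated with 0.1 nM [3H]-GR113808 and test compounds in 50 mM Hepes pH 7.4 at 37° C for 30 min; nonspecific binding was defined with 30 μM serotonin. Bound radioactivity was collected by filtration, and IC50 was derived from inhibition of specific binding.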

SMILES | IC50 [1] [nM] | Emax (human 5-HT4b receptor) [%] | EC50 (human 5-HT4b receptor) [nM] | IC50 (5-HT4 receptor) [nM]
CC(C)c1nn(-c2noc(C3CCN(C4C5CCCC4CN(C(=O)CO)C5)CC3)n2)c2c(F)cccc12 (stereo not drawn) [Example 535, 1-[(9-anti)-9-(4-{3-[7-fluoro-3-(propan-2-yl)-1H-indazol-1-yl]-1,2,4-oxadiazol-5-yl}piperidin-1-yl)-3-azabicyclo[3.3.1]non-3-yl]-2-hydroxyethanone] | 29.7 | – | – | –
Cc1cccc2c1c(C(C)C)nn2-c1noc(C2CCN(C3CCOCC3)CC2)n1 [Example 424, 4-methyl-3-(propan-2-yl)-1-{5-[1-(tetrahydro-2H-pyran-4-yl)piperidin-4-yl]-1,2,4-oxadiazol-3-yl}-1H-indazole] | 55 | – | – | –
COCCN(CC1CCOCC1)C1CC(c2nc(-n3nc(C(C)C)c4cccc(F)c43)no2)C1 (centres unmarked) [Example 613, 3-{3-[7-fluoro-3-(propan-2-yl)-1H-indazol-1-yl]-1,2,4-oxadiazol-5-yl}-N-(2-methoxyethyl)-N-{tetrahydro-2H-pyran-4-ylmethyl)cyclobutanamine] | < 20 | – | – | –
COCCN(C1CCOCC1)[C@H]1C[C@H](c2nc(-n3nc(C(C)C)c4cccc(F)c43)no2)C1 [Example 615, N-(trans-3-{3-[7-fluoro-3-(propan-2-yl)-1H-indazol-1-yl]-1,2,4-oxadiazol-5-yl}cyclobutyl)-N-(2-methoxyethyl)tetrahydro-2H-pyran-4-amine] | 27.4 | – | – | –
CC(C)c1nn(-c2noc(C3CC(NCC4CCCCO4)C3)n2)c2c(F)cccc12 (centres unmarked) [Example 602, 3-{3-[7-fluoro-3-(propan-2-yl)-1H-indazol-1-yl]-1,2,4-oxadiazol-5-yl}-N-(tetrahydro-2H-pyran-2-ylmethyl)cyclobutanamine] | < 20 | – | – | –
CC(C)c1nn(-c2noc(C3CC(NCC4CCOC4)C3)n2)c2c(F)cccc12 (centres unmarked) [Example 608, 3-{3-[7-fluoro-3-(propan-2-yl)-1H-indazol-1-yl]-1,2,4-oxadiazol-5-yl}-N-(tetrahydrofuran-3-ylmethyl)cyclobutanamine] | < 20 | – | – | –
Cc1cccc2c1c(C(C)C)nn2-c1noc(C2CCN(C3CCC3)CC2)n1 [Example 423, 1-[5-(1-cyclobutylpiperidin-4-yl)-1,2,4-oxadiazol-3-yl]-4-methyl-3-(propan-2-yl)-1H-indazole] | 136 | – | – | –
CC(C)c1nn(-c2noc(C3CCN(C(C)(C)C(=O)OC(C)(C)C)CC3)n2)c2c(F)cccc12 [Example 400, tert-butyl 2-(4-{3-[7-fluoro-3-(propan-2-yl)-1H-indazol-1-yl]-1,2,4-oxadiazol-5-yl}piperidin-1-yl)-2-methylpropanoate] | 225 | – | – | –
CCc1nn(-c2noc(C3CCN(C4CCN(C(C)=O)CC4)CC3)n2)c2c(F)c(F)ccc12 [Example 460, 1-{4-[3-(3-ethyl-6,7-difluoro-1H-indazol-1-yl)-1,2,4-oxadiazol-5-yl]-1,4′-bipiperidin-1′-yl}ethanone trifluoroacetate] | – | 78.6 | 5.3 | < 20
CC(=O)N1CCC(N2CC[C@@H](Cc3nc(-n4nc(C(C)C)c5cccc(F)c54)no3)C2)CC1 [Example 507, 1-{4-[(3S)-3-({3-[7-fluoro-3-(propan-2-yl)-1H-indazol-1-yl]-1,2,4-oxadiazol-5-yl}methyl)pyrrolidin-1-yl]piperidin-1-yl}ethanone] | – | 84 | 3.9 | < 20
COCC(=O)N1CCC(N2CCC(c3nc(-n4nc(C(C)C)c5cccc(F)c54)no3)CC2)CC1 [Example 233, 1-(4-{3-[7-fluoro-3-(propan-2-yl)-1H-indazol-1-yl]-1,2,4-oxadiazol-5-yl}-1,4′-bipiperidin-1′-yl)-2-methoxyethanone hydrochloride] | – | 93.5 | 2.9 | < 20
COC(=O)N1CCC(N2CCC(c3nc(-n4nc(C(C)C)c5ccc(F)c(F)c54)no3)CC2)CC1 [Example 463, methyl 4-{3-[6,7-difluoro-3-(propan-2-yl)-1H-indazol-1-yl]-1,2,4-oxadiazol-5-yl}-1,4′-bipiperidine 1′-carboxylate trifluoroacetate] | – | 64.4 | 8.3 | < 20
CCc1nn(-c2noc(C3CCN(C4CCN(S(C)(=O)=O)CC4)CC3)n2)c2c(F)cccc12 [Example 241, 4-[3-(3-ethyl-7-fluoro-1H-indazol-1-yl)-1,2,4-oxadiazol-5-yl]-1′-(methylsulfonyl)-1,4′-bipiperidine] | – | 58.8 | 3.2 | < 20
CCc1nn(-c2noc(C3CCN(CC4CCN(C(=O)CO)CC4)CC3)n2)c2c(F)cccc12 [compound 246, 1-[4-({4-[3-(3-ethyl-7-fluoro-1H-indazol-1-yl)-1,2,4-oxadiazol-5-yl]piperidin-1-yl}methyl)piperidin-1-yl]-2-hydroxyethanone] | – | 56.6 | 21.1 | < 20
CC(=O)N1CC(CN2CCC(c3nc(-n4nc(C(C)C)c5cccc(F)c54)no3)CC2)C1 [Example 219, 1-{3-[(4-{3-[7-fluoro-3-(propan-2-yl)-1H-indazol-1-yl]-1,2,4-oxadiazol-5-yl}piperidin-1-yl)methyl]azetidin-1-yl}ethanone hydrochloride] | – | 96.9 | 2.8 | < 20
CCc1nn(-c2noc(C3CCN(CC4CN(C(C)=O)C4)CC3)n2)c2c(F)c(F)ccc12 [Example 468, 1-[3-({4-[3-(3-ethyl-6,7-difluoro-1H-indazol-1-yl)-1,2,4-oxadiazol-5-yl]piperidin-1-yl}methyl)azetidin-1-yl]ethanone trifluoroacetate] | – | 69.8 | 22.4 | < 20
CC(C)c1nn(-c2noc(C3CCN(C4CCC4)CC3)n2)c2c(F)c(F)ccc12 [Example 451, 1-[5-(1-cyclobutylpiperidin-4-yl)-1,2,4-oxadiazol-3-yl]-6,7-difluoro-3-(propan-2-yl)-1H-indazole-trifluoroacetate] | – | 83.1 | 13.8 | < 20
COC(=O)N1CCC(CN2CCC(c3nc(-n4nc(C(C)C)c5ccc(F)c(F)c54)no3)CC2)CC1 [Example 482, methyl 4-[(4-{3-[6,7-difluoro-3-(propan-2-yl)-1H-indazol-1-yl]-1,2,4-oxadiazol-5-yl}piperidin-1-yl)methyl]piperidine-1-carboxylate trifluoroacetate] | – | 70.5 | 8.9 | 23.6
CC(C)c1nn(-c2noc(C3CCN(C4CCN(C(=O)CO)CC4)CC3)n2)c2ccccc12 [Example 519] | – | 81.1 | 33.5 | 27.1
CCc1nn(-c2noc(C3CCN(C[C@@H]4CCN(C(C)=O)C4)CC3)n2)c2c(F)cccc12 [Example 201, 1-[(3S)-3-({4-[3-(3-ethyl-7-fluoro-1H-indazol-1-yl)-1,2,4-oxadiazol-5-yl]piperidin-1-yl}methyl)pyrrolidin-1-yl]ethanone] | – | 39.7 | 6.8 | < 20
CCc1nn(-c2noc(C3CCN(C4CCN(C(=O)OC)CC4)CC3)n2)c2c(F)c(F)ccc12 [Example 459, methyl 4-[3-(3-ethyl-6,7-difluoro-1H-indazol-1-yl)-1,2,4-oxadiazol-5-yl]-1,4′-bipiperidine-1′-carboxylate trifluoroacetate] | – | 68.2 | 7.6 | < 20
COC(=O)N1CC(CN2CCC(c3nc(-n4nc(C(C)C)c5ccc(F)c(F)c54)no3)CC2)C1 [Example 474, methyl 3-[(4-{3-[6,7-difluoro-3-(propan-2-yl)-1H-indazol-1-yl]-1,2,4-oxadiazol-5-yl}piperidin-1-yl)methyl]azetidine-1-carboxylate trifluoroacetate] | – | 89.4 | 34.4 | 20.2
